Test results: patent publication US20050288347A1, “Certain triazole-based compounds, compositions, and uses thereof” (priority 2004, published 2005)
“Also recorded” adds a separate entry of the source.

biological target: protein kinase; experiment: HTS ATP-utilizing enzyme assay, off-chip mobility-shift format (Caliper HTS 250); type: biochemical, human; conditions: kinase(s) for which the compound exhibits protein kinase inhibitory activity; test compound 10 μM; active = greater than three-sigma from the mean activity of inactive compounds
Outline: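 Kinase reactions ran 2.5 h at 20 to 22 °C with test compound at 10 μM, in a HEPES pH 7.5 master buffer containing Triton X-100 and BSA. Peptide substrate and phosphorylated product separated by mobility shift; inhibition normalized to DMSO (0%) and EDTA (100%) controls, with three-sigma thresholds for hits.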

| Kinase | Structure (SMILES) |
| --- | --- |
| AURORA-A | COc1ccccc1-n1c(S)nnc1-c1cccnc1 [4-(2-methoxyphenyl)-5-(pyridin-3-yl)-4H-1,2,4-triazole-3-thiol] |
| AURORA-A | Sc1nnc(C2CCCCC2)n1-c1cccc(Cl)c1 [4-(3-chlorophenyl)-5-cyclohexyl-4H-1,2,4-triazole-3-thiol] |
| CDK5 and CDK2-cyclinA and CDK2-cyclinE | Oc1ccc(-c2nnc(S)n2-c2cccc(Cl)c2)cc1 [4-(4-(3-chlorophenyl)-5-mercapto-4H-1,2,4-triazol-3-yl)phenol] |

| Structure (SMILES) | Kinase |
| --- | --- |
| Nc1c(Cl)cc(-n2c(S)nnc2-c2ccccc2)cc1Cl [4-(4-amino-3,5-dichlorophenyl)-5-phenyl-4H-1,2,4-triazole-3-thiol] | GSK3-β; also recorded: GSK3-α; also recorded: CDK2-cyclinE |

same assay, conditions: test compound 10 μM; active = activity greater than three-sigma from the mean of the predominately inactive population for that enzyme

| Structure (SMILES) | protein kinase against which the compound exhibits inhibitory activity (Table 3) |
| --- | --- |
| CCCCSc1nnc(-c2ccc(Cl)c(Cl)c2)[nH]1 [3-(butylthio)-5-(3 ,4-dichlorophenyl)-4H-1,2,4-triazole] | AURORA-A; also recorded: FLT-3; also recorded: GSK3-α |
| CCCCSc1nnc(-c2cccc(C(F)(F)F)c2)[nH]1 [3-(butylthio)-5-(3-(trifluoromethyl)phenyl)-4H-1,2,4-triazole] | AURORA-A; also recorded: FLT-3; also recorded: GSK3-α |
| CCCCSc1nnc(-c2ccc(F)cc2)[nH]1 [3-(butylthio)-5-(4-fluorophenyl)-4H-1,2,4-triazole] | AURORA-A; also recorded: FLT-3; also recorded: DYRK2 |
| CCCCSc1nnc(-c2ccc(OC)cc2)[nH]1 [3-(butylthio)-5-(4-methoxyphenyl)-4H-1,2,4-triazole] | AURORA-A; also recorded: FLT-3; also recorded: GSK3-α |
| CCCCSc1nnc(-c2ccc([N+](=O)[O-])cc2)[nH]1 [3-(butylthio)-5-(4-nitrophenyl)-4H-1,2,4-triazole] | AURORA-A; also recorded: GSK3-α |
| CCCCSc1nnc(COc2ccc(Cl)cc2)[nH]1 [3-(butylthio)-5-((4-chlorophenoxy)methyl)-4H-1,2,4-triazole] | FLT-3 |
| CCCCSc1nnc(-c2ccccc2)[nH]1 [3-(butylthio)-5-phenyl-4H-1,2,4-triazole] | AURORA-A; also recorded: FLT-3; also recorded: c-TAK1 |
| COc1ccc(-c2nnc(SCC3CCCCC3)[nH]2)cc1 [3-(cyclohexylmethylthio)-5-(4-methoxyphenyl)-4H-1,2,4-triazole] | AURORA-A; also recorded: c-TAK1 |
| c1csc(-c2nnc(SCC3CCCCC3)[nH]2)c1 [3-(cyclohexylmethylthio)-5-(thiophen-2-yl)-4H-1,2,4-triazole] | AURORA-A; also recorded: DYRK2 |
| Cc1cccc(-c2nnc(SCC3CCCCC3)[nH]2)c1 [3-(cyclohexylmethylthio)-5-m-tolyl-4H-1,2,4-triazole] | AURORA-A; also recorded: c-TAK1 |
| Cc1nnc(SCC2CCCCC2)[nH]1 [3-(cyclohexylmethylthio)-5-methyl-4H-1,2,4-triazole] | AURORA-A; also recorded: GSK3-α |
| c1ccc(-c2nnc(SCC3CCCCC3)[nH]2)cc1 [3-(cyclohexylmethylthio)-5-phenyl-4H-1,2,4-triazole] | AURORA-A; also recorded: c-TAK1; also recorded: CHEK2 |
| FC(F)(F)Oc1ccc(-c2nnc(SCC3CC3)[nH]2)cc1 [3-(cyclopropylmethylthio)-5-(4-(trifluoromethoxy)phenyl)-4H-1,2,4-triazole] | FLT-3; also recorded: AURORA-A |
| c1ccc(OCc2nnc(SCC3CC3)[nH]2)cc1 [3-(cyclopropylmethylthio)-5-(phenoxymethyl)-4H-1,2,4-triazole] | GSK3-α; also recorded: GSK3-β; also recorded: AURORA-A |
| CCC(c1ccccc1)c1nnc(SCc2cccc3ccccc23)[nH]1 (centres unmarked) [3-(naphthalen-1-ylmethylthio)-5-(1-phenylpropyl)-4H-1,2,4-triazole] | AURORA-A |
| c1ccc(CCSc2nnc(-c3cccs3)[nH]2)cc1 [3-(phenethylthio)-5-(thiophen-2-yl)-4H-1,2,4-triazole] | AURORA-A; also recorded: FLT-3 |
| Cc1ccc(CCn2c(Cc3ccccc3)nnc2SCc2ccccc2)cc1 [3-benzyl-5-(benzylthio)-4-(4-methylphenethyl)-4H-1,2,4-triazole] | FLT-3 and PRAK and AURORA-A |
| c1ccc(CCn2c(Cc3ccccc3)nnc2SCc2ccccc2)cc1 [3-benzyl-5-(benzylthio)-4-phenethyl-4H-1,2,4-triazole] | AURORA-A |
| CCc1nnc(SCC=C(C)C)n1CCc1ccccc1 [3-ethyl-5-(3-methylbut-2-enylthio)-4-phenethyl-4H-1,2,4-triazole] | GSK3-α |
| Cc1nnc(SCc2cccc3ccccc23)[nH]1 [3-methyl-5-(naphthalen-1-ylmethylthio)-4H-1,2,4-triazole] | AURORA-A; also recorded: DYRK2; also recorded: GSK3-α |
| Cc1nnc(SCCc2ccccc2)[nH]1 [3-methyl-5-(phenethylthio)-4H-1,2,4-triazole] | AURORA-A; also recorded: GSK3-β |
| c1ccc(-c2nnc(SCCN3CCCC3)[nH]2)cc1 [3-phenyl-5-(2-(pyrrolidin-1-yl)ethylthio)-4H-1,2,4-triazole] | GSK3-α; also recorded: GSK3-β; also recorded: CHEK2 |
| Cc1cccc(-c2nnc(SCCN3CCOCC3)n2C)c1 [4-(2-(4-methyl-5-m-tolyl-4H-1,2,4-triazol-3-ylthio)ethyl)morpholine] | AKT1 |
| Clc1ccc(-c2nnc(SCCN3CCOCC3)[nH]2)cc1Cl [4-(2-(5-(3,4-dichlorophenyl)-4H-1,2,4-triazol-3-ylthio)ethyl)morpholine] | AURORA-A; also recorded: GSK3-α; also recorded: GSK3-β |
| COc1ccc(-c2nnc(SCCN3CCOCC3)[nH]2)cc1 [4-(2-(5-(4-methoxyphenyl)-4H-1,2,4-triazol-3-ylthio)ethyl)morpholine] | GSK3-α; also recorded: AURORA-A; also recorded: GSK3-β |
| O=[N+]([O-])c1ccc(-c2nnc(SCCN3CCOCC3)[nH]2)cc1 [4-(2-(5-(4-nitrophenyl)-4H-1,2,4-triazol-3-ylthio)ethyl)morpholine] | GSK3-β; also recorded: GSK3-α; also recorded: AURORA-A |
| c1csc(-c2nnc(SCCN3CCOCC3)[nH]2)c1 [4-(2-(5-(thiophen-2-yl)-4H-1,2,4-triazol-3-ylthio)ethyl)morpholine] | AURORA-A; also recorded: GSK3-β; also recorded: GSK3-α |
| Cc1cccc(-c2nnc(SCCN3CCOCC3)[nH]2)c1 [4-(2-(5-m-tolyl-4H-1,2,4-triazol-3-ylthio)ethyl)morpholine] | AURORA-A; also recorded: GSK3-β; also recorded: GSK3-α |

Second part, the molecule after the results:

| protein kinase against which the compound exhibits inhibitory activity (Table 3) | Structure (SMILES) |
| --- | --- |
| AURORA-A | c1ccc(CCSc2nnc(-c3ccc(-c4ccccc4)cc3)[nH]2)cc1 [3-(biphenyl-4-yl)-5-(phenethylthio)-4H-1,2,4-triazole] |
| PDGFRR-α and FYN | CCSc1nnc(-c2ccc([N+](=O)[O-])cc2)n1C [3-(ethylthio)-4-methyl-5-(4-nitrophenyl)-4H-1,2,4-triazole] |
| AURORA-A | Cc1cccc(-c2nnc(SCc3cccc4ccccc34)[nH]2)c1 [3-(naphthalen-1-ylmethylthio)-5-m-tolyl-4H-1,2,4-triazole] |
| AURORA-A; also recorded: GSK3-α | FC(F)(F)c1cccc(-c2nnc(SCCc3ccccc3)[nH]2)c1 [3-(phenethylthio)-5-(3-(trifluoromethyl)phenyl)-4H-1,2,4-triazole] |
| AKT1 | COc1ccc(-n2c(Cc3ccccc3)nnc2SC)cc1 [3-benzyl-4-(4-methoxyphenyl)-5-(methylthio)-4H-1,2,4-triazole] |
| AURORA-A | Cc1ccc(CSc2nnc(Cc3ccccc3)[nH]2)cc1 [3-benzyl-5-(4-methylbenzylthio)-4H-1,2,4-triazole] |
| AURORA-A | Clc1ccc(Cn2c(Cc3ccccc3)nnc2SCc2ccccc2)cc1Cl [3-benzyl-5-(benzylthio)-4-(3,4-dichlorobenzyl)-4H-1,2,4-triazole] |
| PDGFRR-α | O=[N+]([O-])c1ccc(-c2nnc(SCCN3CCOCC3)n2-c2ccccc2)cc1 [4-(2-(5-(4-nitrophenyl)-4-phenyl-4H-1,2,4-triazol-3-ylthio)ethyl)morpholine] |
| c-TAK1 | COc1ccccc1-n1c(SCCCC(=O)O)nnc1-c1ccccc1 [4-(4-(2-methoxyphenyl)-5-phenyl-4H-1,2,4-triazol-3-ylthio)butanoic acid] |
| GSK3-β and GSK3-α and LYNA | Oc1ccc(-c2nnc(SCc3ccccc3)n2Cc2ccccc2)cc1 [4-(4-benzyl-5-(benzylthio)-4H-1,2,4-triazol-3-yl)phenol] |
| GSK3-β; also recorded: GSK3-α | CCSc1nnc(-c2ccc(O)cc2)n1Cc1ccccc1 [4-(4-benzyl-5-(ethylthio)-4H-1,2,4-triazol-3-yl)phenol] |
| GSK3-α; also recorded: GSK3-β | CSc1nnc(-c2ccc(O)cc2)n1Cc1ccccc1 [4-(4-benzyl-5-(methylthio)-4H-1,2,4-triazol-3-yl)phenol] |
